# Results from patent US8846616B1, “Alpha-melanocyte stimulating hormone as topical anti-inflammatory agent for the treatment of allergic contact dermatitis and eczema” (Florida Agricultural and Mechanical University, priority 2009, dated 2014).
# What was measured:
# [1] = In vitro skin permeation, Franz diffusion cells; type: in vitro ADME, rat
# Protocol: (§1) In order to determine if the penetration and retention of full-length α-MSH could be augmented in vitro by formulations containing compounds known to improve this process, we conducted in vitro studies with 36 different formulations of α-MSH. The α-MSH powder was weighed directly into a 2 mL graduated glass vial and dissolved in water. Measured volumes of the respective vehicles were dissolved in the solution to achieve the desired percentage (w/v) of α-MSH. Hairless rats were euthanized, skin from the dorsal surface was excised, and the adherent fat and subcutaneous tissue were removed. The skin was mounted on Franz diffusion cells with the stratum corneum facing the donor compartment. The volume of the donor and receptor cells was 2.0 and 5.0 mL, respectively.
# Permeation of α-MSH in these formulations was measured by applying the formulation (200 μL) on the skin surface in the donor compartment, sealed with aluminum foil and Parafilm®. […] After 24 hours, the receptor compartment was sampled, and α-MSH content was analyzed by HPLC.
# (§2) Analysis of α-MSH in permeation and retention studies conducted in vitro with skin from hairless rats was performed using an HPLC system (Waters Corp, Milford, Mass.) operated by Millennium software. […] The α-MSH content in the samples was determined using the UV detector set at 230 nm, and the detection limit was determined to be 0.1 μg/mL. […]
# [2] = In vitro skin retention, Franz diffusion cells; type: in vitro ADME, rat; conditions: after 24 hours
# Protocol: as §1
# For the retention studies, the donor cell was removed, and the excess formulation was removed from the surface of the skin by gently wiping with a cotton swab dipped in 50% ethanol. […] The α-MSH content of each sample was analyzed by HPLC. […]
# as §2
# [3] = tested on: DNFB-induced allergic contact dermatitis; test: Murine allergic contact dermatitis (ACD) model, ear swelling by micrometer; type: in vivo, mouse; conditions: concentration of 0.25% α-MSH versus 0.125% and 0.5%; topical formulations including MF21
# Protocol: Allergic contact dermatitis was induced as previously described (8, 16). Mice were sensitized on day 0 by applying 25 μL of 0.5% DNFB in 4:1 acetone/olive oil on the shaved abdomen. Mice were challenged on day 5 with a single topical application of 15 μL of 0.2% DNFB in 4:1 acetone/olive oil on the right ear in order to induce an ACD response. The left ears were treated with a single topical application of the matched vehicle alone (4:1 acetone/olive oil) to serve as an internal control for the experiments. Beginning on day 6 (24 hours after challenge), the right ears were treated with 15 μL of topically applied α-MSH formulations or 0.5 mM dexamethasone solution and the left ears of the same mice were topically applied with the corresponding matched vehicle. […] Commercial ointment products were topically applied 20 μL per treatment as measured with a syringe and spread evenly with an applicator stick. […] The ACD response was determined by the degree of ear swelling of the hapten-exposed ear (right) compared to that of the matched vehicle-treated contra-lateral ear (left) before DNFB challenge and at 24, 48, 72, and 96 hours after challenge, as measured with a micrometer (7309, Mitutoyo, Tokyo, Japan). Percent change was determined based on 100% thickness 24 hours after challenge. […]
# [4] = tested on: DNFB-induced allergic contact dermatitis; test: Histology (H&E) of ear tissue in the ACD model; type: in vivo, mouse; set-up: key to score of relative inflammation (infiltrate grade): (1+) representing few lymphocytes and eosinophils above baseline levels that are scattered around blood vessels; (2+) representing increased perivascular infiltrate; (3+) representing intense perivascular infiltrate extending slightly into the interstitial collagen between vessels within the papillary dermis; (4+) representing intense diffuse lymphocytic infiltrate throughout the papillary dermis; conditions: 96 hours after DNFB challenge
# Protocol: (§3) Mice examined in the allergic contact dermatitis model were euthanized 96 hours after challenge with DNFB, and the left and right ears were excised. Ears were fixed in alcoholic formalin and embedded in paraffin. Cross-sections were cut through the center of each ear anterior to posterior. Ears were stained using hematoxylin and eosin (H&E). Additionally, the inflammatory markers CD3 and ICAM-1 were stained using rat anti-mouse primary antibodies (0.2 μg/mL and 1.0 μg/mL, respectively) and detected with a mouse-absorbed goat anti-rat'horseradish peroxidase-conjugated secondary antibody (1.0 μg/mL). Endogenous peroxidase activity was blocked with H2O2 before antibody incubations and DAB exposure, and then the marker-stained slides were counterstained with Mayer's hematoxylin blued with dilute ammonium hydroxide. The sections of each ear were photographed at representative sites using a light microscope (Zeiss Axio Imager; Zeiss, Thornwood, N.Y.) with an attached digital camera (Axiocam MRc, Zeiss, Thornwood, N.Y.) operated by Zeiss AxioVision 4.6.
# Mice used in the allergic contact dermatitis model were euthanized 96 hours after challenge with DNFB (72 hours after initiation of topical treatment), and the left and right ears were excised, fixed with formalin, and embedded in paraffin. Cross-sections of the middle of each ear (same position) were cut at a thickness of 4 μm and stained with hematoxylin and eosin (H&E). […] Microscopic measurements of thickness were made at 5 equidistant points on each of the photographed H&E sections. All values are expressed as mean±SD. All differences were statistically significant as determined by ANOVA for pair-wise comparison (P<0.05).
# Overall, the allergic contact dermatitis hypersensitivity response developed intense perivascular lymphoid infiltrate extending into the papillary dermis with little or no change in the epidermis at 96 hours following challenge. In all samples generally >90% of the inflammatory infiltrate consisted of lymphocytes and <10% consisted of eosinophils. […]
# CD3 = test: Immunohistochemistry of ear tissue in the ACD model, CD3; type: in vivo, mouse; conditions: ear tissue after three days of treatment, 96 hours after DNFB challenge
# Protocol: as §3
# To assay inflammation, ear tissue of the mice was excised 96 hours after challenge with DNFB, fixed in formalin, and embedded in paraffin. […]
substance,measurement,setting,value
Ac-Ser-Tyr-Ser-Met-Glu-His-Phe-Arg-Trp-Gly-Lys-Pro-Val [α-MSH],permeation through the skin barrier,"[1]; aqueous α-MSH in the absence of TRANSCUTOL and NMP, after 24 hours",did not permeate through the skin barrier at all
same,α-MSH penetrated through 1.0 cm^2 of skin,"[1]; vehicles ethanol, propylene glycol, TRANSCUTOL and LABRASOL (all four), hairless rat skin in vitro",6.5 to 7.0 µg
same,α-MSH retained per gram of skin (epidermis),"[2]; in aqueous TRANSCUTOL, LABRASOL, or propylene glycol",0.4-0.5 mg per gram of skin
same,α-MSH retained per gram of skin (epidermis),[2]; in aqueous ethanol,1.8 mg per gram of skin
same,"reduction in ear swelling, α-MSH dose response",[3],optimal reduction in ear swelling
same,score of relative inflammation (infiltrate grade),[4],1+
same,inflammatory (lymphoid) infiltrate in H&E sections,[4]; three days of treatment twice per day,relatively low retention of inflammatory infiltrate
same,ear swelling in H&E sections,"[4]; three days of treatment twice per day, FIG. 4",complete alleviation of swelling down to slightly below baseline thickness
same,expression of the CD3 marker antigen in the lymphocytic infiltrate,CD3,greatly reduced
